Results reported in patent publication US5238921A, “Oligopeptide, angiotensin converting enzyme inhibitors, hypotensive agent, and method for treatment of hypertension” (Agency of Industrial Science and Technology, priority 1990, dated 1993).
Like-named read-outs stand apart in the source and are kept apart here. Non-standard residues stand in square brackets, D forms with d. Residues, ends and D or L forms follow the SMILES beside them.

Key:
[1] = molecular target: T1, angiotensin converting enzyme (Oryctolagus cuniculus, UniProt P12822); test: ACE inhibition activity (hippuroylhistidylleucine substrate, hippuric acid absorbance at 228 nm); assay type: biochemical, rabbit; conditions: for Concentration giving the inhibition rate: concentration at which the inhibition rate (E2) was found, not 50%
T1 construct: the supernatant was further purified with hydroxyapatite to obtain an angiotensin converting enzyme solution; from tissue; host or cells: rabbit lung (acetone powder)
T1 sequence (P12822 34-1310): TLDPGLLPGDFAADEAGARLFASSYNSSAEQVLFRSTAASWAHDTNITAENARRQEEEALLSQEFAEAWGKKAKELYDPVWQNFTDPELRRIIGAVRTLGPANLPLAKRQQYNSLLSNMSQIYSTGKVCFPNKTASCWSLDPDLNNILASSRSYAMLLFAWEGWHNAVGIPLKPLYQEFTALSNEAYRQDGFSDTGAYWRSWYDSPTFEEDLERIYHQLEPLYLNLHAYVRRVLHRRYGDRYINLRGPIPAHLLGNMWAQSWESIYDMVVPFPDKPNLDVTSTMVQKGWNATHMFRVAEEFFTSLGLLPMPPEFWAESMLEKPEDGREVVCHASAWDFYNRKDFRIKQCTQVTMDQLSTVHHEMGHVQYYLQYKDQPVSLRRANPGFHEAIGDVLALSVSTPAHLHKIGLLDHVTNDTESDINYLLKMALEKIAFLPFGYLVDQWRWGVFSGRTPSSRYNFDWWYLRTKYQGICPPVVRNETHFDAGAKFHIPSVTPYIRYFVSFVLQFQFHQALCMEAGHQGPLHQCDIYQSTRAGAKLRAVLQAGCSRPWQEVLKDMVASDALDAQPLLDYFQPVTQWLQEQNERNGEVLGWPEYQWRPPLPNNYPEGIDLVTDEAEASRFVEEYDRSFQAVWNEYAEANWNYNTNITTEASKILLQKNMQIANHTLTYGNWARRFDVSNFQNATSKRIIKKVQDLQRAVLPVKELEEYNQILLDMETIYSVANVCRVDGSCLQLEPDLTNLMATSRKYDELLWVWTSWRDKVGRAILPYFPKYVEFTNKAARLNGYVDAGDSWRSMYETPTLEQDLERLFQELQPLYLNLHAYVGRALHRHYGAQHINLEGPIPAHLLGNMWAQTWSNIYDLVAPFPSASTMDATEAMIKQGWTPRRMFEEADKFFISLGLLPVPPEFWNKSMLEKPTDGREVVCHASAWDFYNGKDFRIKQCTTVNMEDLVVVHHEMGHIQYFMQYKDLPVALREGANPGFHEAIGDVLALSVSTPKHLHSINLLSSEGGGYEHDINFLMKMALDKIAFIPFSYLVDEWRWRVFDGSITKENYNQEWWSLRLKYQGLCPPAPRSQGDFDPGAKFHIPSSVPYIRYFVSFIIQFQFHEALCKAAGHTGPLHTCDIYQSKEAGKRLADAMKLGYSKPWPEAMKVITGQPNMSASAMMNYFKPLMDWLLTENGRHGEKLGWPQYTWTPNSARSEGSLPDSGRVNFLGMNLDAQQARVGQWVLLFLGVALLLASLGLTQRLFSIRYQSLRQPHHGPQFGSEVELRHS
Experimental: The ACE inhibition activity of the thus obtained present oligopeptides was measured as follows. Namely, first, 5 g of rabbit lung acetone powder was dissolved in 50 ml of 0.1M sodium borate buffer (pH 8.3), the solution was centrifuged under the conditions of 40,000 G for 40 minutes, and the supernatant was further purified with hydroxyapatite to obtain an angiotensin converting enzyme solution having an enzyme activity of 1 unit/mg protein.
0.03 ml portions of aqueous solutions containing in various concentrations any one of the present oligopeptides was placed in test tubes, 0.25 ml portions of hippuroylhistidylleucine (final concentration 5 mM; containing 300 mM NaCl) were added thereto, 0.1 ml portions of the above angiotensin converting enzyme solution were added, and reactions were carried out at 37° C. for 30 minutes.
Plural of such an experiment were conducted and the inhibition rate was calculated by the following equation: [formula]

[2] = test system: spontaneous hypertensive rats (SHR); test: Hypotensive activity in spontaneous hypertensive rats (Tail-Cuff method); assay type: in vivo, rat; conditions: 120 mg/kg intraperitoneally, maximum blood pressure before minus after administration ± S.E., p < 0.01 against saline control
Experimental: 10-week old spontaneous hypertensive rats (SHR) (produced BY Nihon Rat Co., Ltd.,.male., weight 240 to 280 g, 4 to 6 animals per 1 group) were used as test animals. L-Leu-L-Arg-L-Pro obtained as in Example 12 was dissolved in physiological saline and 120 mg in terms of the effective ingredient of the solution was intraperitoneally administered per kg of animal. As control physiological saline was intraperitoneally administered. Blood pressure was measured before the administration and at regular intervals of time after the administration by the Tail-Cuff method using a bloodless sphygmomanometer for rats and mice TK-350 (produced by Unicom Co., Ltd.)
The results were shown in Table 2 by (Maximum blood pressure value before the administration-Maximum blood pressure value after the administration) ± S.E.

[3] = rabbit lung ACE, 5 mM hippuroylhistidylleucine, 37° C. 30 minutes, read-out: IC50
[4] = line prints 50% inhibition rate instead of the word IC50, read-out: Concentration giving the inhibition rate (50%)

With CC(C)C[C@@H](N)C(=O)N[C@@H](CCCNC(=N)N)C(=O)N1CCC[C@H]1C(=O)O [D--Leu--L--Arg--L--Pro, D-Leu-L-Arg-L-Pro] (H-[dL]-Arg-Pro-OH) the “Concentration giving the inhibition rate” value [1] was 45 µM.
CC[C@H](C)[C@H](N)C(=O)N[C@@H](CCCNC(=N)N)C(=O)N[C@@H](C)C(=O)N[C@@H](CCC(N)=O)C(=O)N[C@@H](CCC(N)=O)C(=O)O [L--Ile--Arg--L--Ala--L--Gln--L--Gln, L-Ile-L-Arg-L-Ala-L-Gln-L-Gln] (H-IRAQQ-OH) showed an IC50 [1, 3] of 160 µM.
CC[C@H](C)[C@H](N)C(=O)N[C@@H](CCCNC(=N)N)C(=O)N[C@@H](C)C(=O)O [L--Ile--L--Arg--L--Ala, L-Ile-L-Arg-L-Ala] (H-Ile-Arg-Ala-OH) gave an IC50 [1, 3] of 6.4 µM.
For CC(C)C[C@H](N)C(=O)NCC(=O)N1CCC[C@H]1C(=O)O [L--Leu--Gly--L--Pro, L-Leu-Gly-L-Pro] (H-Leu-Gly-Pro-OH), the “Concentration giving the inhibition rate” value [1] was 60 µM.
For CC(C)C[C@H](N)C(=O)N[C@@H](C)C(=O)N[C@@H](C)C(=O)O [L--Leu--L--Ala--L--Ala, L-Leu-L-Ala-L-Ala] (H-Leu-Ala-Ala-OH), the IC50 [1, 3] was 13 µM.
In the case of CC(C)C[C@H](N)C(=O)N[C@@H](C)C(=O)N1CCC[C@H]1C(=O)O [L--Leu--L--Ala--L--Pro, L-Leu-L-Ala-L-Pro] (H-Leu-Ala-Pro-OH), the IC50 [1, 4] is reported as 1.4 µM.
Work on CC(C)C[C@H](N)C(=O)N[C@@H](CCCN=C(N)N)C(=O)N1CCC[C@H]1C(=O)O [L--Leu--L--Arg--L--Pro, L-Leu-L-Arg-L-Pro] (H-Leu-Arg-Pro-OH) yielded an IC50 [1, 3] of 0.27 µM.
With CC(C)C[C@H](N)C(=O)N[C@@H](CCCNC(=N)N)C(=O)N1CCC[C@H]1C(=O)O [L--Leu--L--Arg--L--Pro, L-Leu-L-Arg-L-Pro] (H-Leu-Arg-Pro-OH) the “Lowering of blood pressure (mm Hg) 5 hours later” value [2] was 14 ± 5 mm Hg.
CC(C)C[C@H](N)C(=O)N[C@@H](CC(N)=O)C(=O)N1CCC[C@H]1C(=O)O [L--Leu--L--Asn--L--Pro, L-Leu-L-Asn-L-Pro] (H-Leu-Asn-Pro-OH) gave an IC50 [1, 3] of 35 µM.
With CC(C)C[C@H](N)C(=O)N[C@@H](CC(=O)O)C(=O)N1CCC[C@H]1C(=O)O [L--Leu--L--Asp--L--Pro, L-Leu-L-Asp-L-Pro] (H-Leu-Asp-Pro-OH) the “Concentration giving the inhibition rate” value [1] was 182 µM.
CC(C)C[C@H](N)C(=O)N[C@@H](CCC(N)=O)C(=O)N1CCC[C@H]1C(=O)O [L--Leu--L--Gln--L-- Pro, L-Leu-L-Gln-L-Pro] (H-Leu-Gln-Pro-OH) gave an IC50 [1, 3] of 1.9 µM.
Molecule CC(C)C[C@H](N)C(=O)N[C@@H](CCC(N)=O)C(=O)N[C@@H](CCC(N)=O)C(=O)O [L--Leu--L--Gln--L--Gln, L-Leu-L-Gln-L-Gln] (H-Leu-Gln-Gln-OH) has an IC50 [1, 3] of 100 µM.
With CC(C)C[C@H](N)C(=O)N[C@@H](CCC(=O)O)C(=O)N1CCC[C@H]1C(=O)O [L--Leu--L--Glu--L--Pro, L-Leu-L-Glu-L-Pro] (H-Leu-Glu-Pro-OH) the “Concentration giving the inhibition rate” value [1] was 24 µM.
In the case of CC(C)C[C@H](N)C(=O)N[C@@H](Cc1c[nH]cn1)C(=O)N1CCC[C@H]1C(=O)O [L--Leu--L--His--L--Pro, L-Leu-L-His-L-Pro] (H-Leu-His-Pro-OH), the IC50 [1, 4] is reported as 80 µM.
Work on CC(C)C[C@H](NC(=O)[C@@H](N)CC(C)C)C(=O)N1CCC[C@H]1C(=O)O [L--Leu--L--Leu--L--Pro, L-Leu-L-Leu-L-Pro] (H-Leu-Leu-Pro-OH) yielded an IC50 [1, 3] of 57 µM.
Molecule CC(C)C[C@H](N)C(=O)N[C@@H](CCCCN)C(=O)N1CCC[C@H]1C(=O)O [L--Leu--L--Lys--L--Pro, L-Leu-L-Lys-L-Pro] (H-Leu-Lys-Pro-OH) has an IC50 [1, 4] of 0.6 µM.
Molecule CC(C)C[C@H](N)C(=O)N[C@@H](CO)C(=O)N1CCC[C@H]1C(=O)O [L--Leu--L--Ser--L--Pro, L-Leu-L-Ser-L-Pro] (H-Leu-Ser-Pro-OH) has an IC50 [1, 3] of 1.7 µM.
With CC(C)C[C@H](N)C(=O)N[C@H](C(=O)N1CCC[C@H]1C(=O)O)[C@@H](C)O [L--Leu--L--Thr--L--Pro, L-Leu-L-Thr-L-Pro] (H-Leu-Thr-Pro-OH) the “Concentration giving the inhibition rate” value [1] was 3.4 µM.
In the case of CC(C)C[C@H](N)C(=O)N[C@@H](Cc1ccc(O)cc1)C(=O)N1CCC[C@H]1C(=O)O [L--Leu--L--Tyr--L--Pro, L-Leu-L-Tyr-L-Pro] (H-Leu-Tyr-Pro-OH), the “Concentration giving the inhibition rate” value [1] is reported as 12 µM.
With CC(C)C[C@H](NC(=O)[C@@H](N)Cc1ccccc1)C(=O)N1CCC[C@H]1C(=O)O [L--Phe--L--Leu--L--Pro, L-Phe-L-Leu-L-Pro] (H-Phe-Leu-Pro-OH) the IC50 [1, 3] was 210 µM.
In the case of N[C@@H](Cc1ccccc1)C(=O)N[C@@H](Cc1ccc(O)cc1)C(=O)O [L--Phe--L--Tyr, L-Phe-L-Tyr] (H-Phe-Tyr-OH), the IC50 [1, 3] is reported as 25 µM.
CC(C)[C@H](N)C(=O)N[C@@H](C)C(=O)N[C@@H](C)C(=O)O [L--Val--L--Ala--L--Ala, L-Val-L-Ala-L-Ala] (H-Val-Ala-Ala-OH) gave an IC50 [1, 3] of 13 µM.
Molecule CC(C)[C@H](N)C(=O)N[C@@H](C)C(=O)N[C@@H](Cc1ccc(O)cc1)C(=O)O [L--Val--L--Ala--L--Tyr, L-Val-L-Ala-L-Tyr] (H-Val-Ala-Tyr-OH) has an IC50 [1, 3] of 16 µM.
CC(C)[C@H](N)C(=O)N[C@@H](CO)C(=O)N1CCC[C@H]1C(=O)O [L--Val--L--Ser--Ser--L--Pro, L-Val-L-Ser-L-Pro] (H-Val-Ser-Pro-OH; N-terminus and C-terminus assumed) showed an IC50 [1, 3] of 10 µM.
